Measurements published in paper PMC11166204, “Mapping the global interactome of the ARF family reveals spatial organization in cellular signaling pathways” (Journal of Cell Science, 2024).
Like-named read-outs stand apart in the source and are kept apart here.

What was measured:
Format in all cases: binding
ARL10 [1] = target: T1, ARL10 (Homo sapiens, UniProt Q8N8L6); assay: co-purified nucleotide by ion-pair reversed-phase HPLC
T1 construct: GFP-tagged, purified from HEK293T cells
T1 sequence (Q8N8L6 1-244): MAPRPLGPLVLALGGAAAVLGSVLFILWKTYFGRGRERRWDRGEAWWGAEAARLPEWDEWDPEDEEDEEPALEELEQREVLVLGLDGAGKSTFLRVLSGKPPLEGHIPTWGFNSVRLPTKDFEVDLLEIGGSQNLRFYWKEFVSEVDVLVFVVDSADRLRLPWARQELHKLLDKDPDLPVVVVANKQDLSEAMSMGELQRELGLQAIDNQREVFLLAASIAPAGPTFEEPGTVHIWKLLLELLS

KRAS [2] = target: T2, KRAS (Homo sapiens, UniProt P01116, Q61L); assay: as above
T2 construct: GFP-tagged, purified from HEK293T cells

ARL11 = target: T3, ARL11 (Homo sapiens, UniProt Q969Q4); assay: ITC; 1H-15N HSQC NMR
T3 construct: amino acids 1–196 (GST tag cleaved with thrombin)
T3 sequence (Q969Q4 whole entry, the tested form may be a part): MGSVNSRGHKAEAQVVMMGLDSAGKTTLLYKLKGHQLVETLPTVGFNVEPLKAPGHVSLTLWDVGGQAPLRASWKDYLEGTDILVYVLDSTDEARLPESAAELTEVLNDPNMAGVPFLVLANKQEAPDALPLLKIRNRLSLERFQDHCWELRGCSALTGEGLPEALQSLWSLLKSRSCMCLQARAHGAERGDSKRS

ARL10 [3] = target: T1, ARL10; assay: co-purified nucleotide by ion-pair reversed-phase HPLC; remark: listed apart in the source
KRAS [4] = target: T4, KRAS (Homo sapiens, UniProt P01116); assay: as above
T4 construct: GFP-tagged, purified from HEK293T cells

ARF1 = target: T5, ARF1 (Homo sapiens, UniProt P84077); assay: as above
T5 construct: GFP-tagged, purified from HEK293T cells
T5 sequence (P84077 2-181): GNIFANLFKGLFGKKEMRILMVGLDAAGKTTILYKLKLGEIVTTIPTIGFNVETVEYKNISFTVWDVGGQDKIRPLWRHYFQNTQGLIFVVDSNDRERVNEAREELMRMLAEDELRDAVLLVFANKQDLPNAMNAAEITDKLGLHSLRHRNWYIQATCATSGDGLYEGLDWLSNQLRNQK

For Nc1nc2c(ncn2[C@@H]2O[C@H](COP(=O)(O)OP(=O)(O)OP(=O)(O)O)[C@@H](O)[C@H]2O)c(=O)[nH]1 [GTP], the “% GTP” value (ARL10 [1]) was 29 % GTP and the “% GTP” value (KRAS [2]) was 59 % GTP.

Work on Nc1nc2c(ncn2[C@@H]2O[C@H](COP(=O)(O)OP(=O)(O)OP(O)(O)=S)[C@@H](O)[C@H]2O)c(=O)[nH]1 [GTPγS] yielded a Kd (ARL11) of 1.53 nM.

For Nc1nc2c(ncn2[C@@H]2O[C@H](COP(=O)(O)OP(=O)(O)O)[C@@H](O)[C@H]2O)c(=O)[nH]1 [GDP], the “co-purified nucleotide by ion-pair reversed-phase HPLC” value (from here on “co-purified nucleotide”) (ARL10 [3]) was “WT ARL10 co-precipitated with both GDP and GTP”, the “co-purified nucleotide” value (KRAS [4]) was “WT KRAS remained GDP loaded, as did WT ARF1” and the Kd (ARL11; read-out: Kd) was 1730 nM. The “co-purified nucleotide” value (ARF1) was “WT KRAS remained GDP loaded, as did WT ARF1”.
